In assay [1] the target is T1, androgen receptor (AR-LBD) (Rattus norvegicus, UniProt P15207).
T1 construct: 5 μL of 2×AR-LBD/Fluoromone AL Red Complex contained in the kit; purchased Invitrogen
T1 sequence (P15207 651-882 limits assumed): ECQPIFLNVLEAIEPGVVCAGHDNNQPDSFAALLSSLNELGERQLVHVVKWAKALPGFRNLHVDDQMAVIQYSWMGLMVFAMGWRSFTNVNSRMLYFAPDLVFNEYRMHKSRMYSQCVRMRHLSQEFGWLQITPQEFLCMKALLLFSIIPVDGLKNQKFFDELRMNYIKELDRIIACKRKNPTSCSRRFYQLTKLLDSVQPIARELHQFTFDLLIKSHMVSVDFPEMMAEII
Description: Evaluation of androgen receptor affinity (PolarScreen Androgen Receptor Competitor Assay Kit, Red; fluorescence polarization). The conditions noted are these: 22° C. for 5 hours, relative to binding rate of 1 μM DHT, read-out: AR affinity (pEC50) (converted). Summed up:
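Duplicate wells; compound plus AR-LBD tracer complex incubated 22° C for 5 h, then FP measured. Effect compared with 1 μM DHT; 50%-effect concentration expressed as pEC50.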

Another assay has as its target T2, human androgen receptor (Homo sapiens, UniProt P10275).
T2 construct: expressed in transfected cells; host or cells: HEK293
T2 sequence (P10275 1-920): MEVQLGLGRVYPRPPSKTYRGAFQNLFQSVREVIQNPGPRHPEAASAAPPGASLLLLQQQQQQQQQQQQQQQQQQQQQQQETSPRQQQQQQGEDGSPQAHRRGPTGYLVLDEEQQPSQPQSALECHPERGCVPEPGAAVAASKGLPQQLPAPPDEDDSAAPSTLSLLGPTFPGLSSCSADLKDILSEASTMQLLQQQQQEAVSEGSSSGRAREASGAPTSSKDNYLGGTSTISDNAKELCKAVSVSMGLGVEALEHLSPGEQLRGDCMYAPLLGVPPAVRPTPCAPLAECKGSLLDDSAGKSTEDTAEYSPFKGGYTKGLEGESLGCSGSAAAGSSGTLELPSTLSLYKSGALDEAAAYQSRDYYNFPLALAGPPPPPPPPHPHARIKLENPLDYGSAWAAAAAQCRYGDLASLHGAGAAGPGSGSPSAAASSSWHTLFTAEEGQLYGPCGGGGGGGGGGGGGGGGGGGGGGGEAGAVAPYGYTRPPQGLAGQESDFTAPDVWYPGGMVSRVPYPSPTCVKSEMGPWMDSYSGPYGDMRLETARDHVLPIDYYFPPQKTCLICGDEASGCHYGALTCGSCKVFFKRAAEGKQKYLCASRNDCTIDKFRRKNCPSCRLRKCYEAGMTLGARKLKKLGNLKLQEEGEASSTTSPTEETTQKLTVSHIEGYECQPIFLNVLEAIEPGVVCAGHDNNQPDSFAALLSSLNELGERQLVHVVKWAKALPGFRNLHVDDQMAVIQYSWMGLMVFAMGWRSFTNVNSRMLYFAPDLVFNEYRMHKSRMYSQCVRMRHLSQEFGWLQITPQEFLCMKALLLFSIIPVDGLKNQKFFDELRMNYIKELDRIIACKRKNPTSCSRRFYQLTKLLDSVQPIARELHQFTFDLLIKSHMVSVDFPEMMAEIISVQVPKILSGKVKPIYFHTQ
In words: Reporter assay of an androgen receptor responsive sequence (luciferase, transiently transfected HEK293 cells). It counts as cell-based. To be noted: 24 hours incubation, relative to activity of 100 nM DHT, read-out: AR transcriptive activity (pEC50) (converted). How it is done: Reporter Assay of an Androgen Receptor Responsive Sequence
To examine the agonist activity of compounds for androgen, a reporter assay using an androgen receptor responsive sequence was conducted.
Using Lipofectamine 2000 (Invitrogen), a plasmid mixture (pGL4-ARE (200 ng/well), pcDNA3-hAR (20 ng/well), pRL-TK (Promega) (150 ng/well)) was transiently transfected into HEK293 cells. The contents of the plasmid (mixture) are as follows:
pGL4-ARE is a reporter plasmid containing firefly luciferase sequence under the control of androgen receptor responsive sequence; pcDNA3-hAR is a plasmid containing full-length sequence of human androgen receptor under the constant control of CMV promoter; pRL-TK is a plasmid containing Renilla Luciferase sequence under the control of herpes simplex virus thymidine kinase and used as an internal standard for evaluations of transfection efficiency and compound toxicity.
After the incubation of Lipofectamine 2000 and the plasmid mixture in Opti-MEM for 20 minutes, the mixture was mixed with a cell suspension prepared with Opti-MEM in the similar way, and the cell suspension was plated to a 96-well plate at 20000 cells/well. The transfection was conducted by incubating the plates under the condition of 5% CO2 at 37° C. for 3 hours. Three hours after the transfection, the culture medium was removed and a compound solution prepared by DMEM supplemented with 5% FBS and treated with charcoal was added, and the mixture was incubated under the condition of 5% CO2 at 37° C. for 24 hours. After the incubation with the compound, luciferase activities were measured with a luminometer using Dual-Glo™ Luciferase Assay System (Promega). The measurement of the luciferase activities was performed in accordance with the protocol recommended by Promega. The activity of the compound was determined by comparing to the activity of 100 nM of DHT, and quantified the logarithm value (pEC50) of reciprocal value of the effective concentration of the compound which is equal to 50% of the activity value by applying a 4 parameter goodness-of-fit calculation.

As for `Cc1sc(N(Cc2ccc(OC(F)F)cc2)c2ccc(C#N)cc2)nc1C(=O)NS(C)(=O)=O` [Compound 41, 2-[4-cyano-N-[[4-(difluoromethoxy)phenyl]methyl]anilino]-5-methyl-N-methylsulfonyl-thiazole-4-carboxamide], the EC50 (in assay [1]; on human androgen receptor) was 31.6 nM in each case.
Take `Cc1ccccc1CN(c1ccc(C#N)cc1)c1nc(C(=O)NS(C)(=O)=O)c(C)s1` [Compound 45, 2-[4-cyano-N-(o-tolylmethyl)anilino]-5-methyl-N-methylsulfonyl-thiazole-4-carboxamide]: the EC50 in assay [1] is 158 nM; on human androgen receptor it was 501 nM.
Taken in the same sequence, the figures for `Cc1sc(N(Cc2ccc(C(F)(F)F)cc2)c2ccc(C#N)cc2)nc1C(=O)NS(C)(=O)=O` [Compound 46, 2-[4-cyano-N-[[4-(trifluoromethyl)phenyl]methyl]anilino]-5-methyl-N-methylsulfonyl-thiazole-4-carboxamide] were 31.6 nM and 31.6 nM.
In the case of `Cc1sc(N(Cc2ccc3ncsc3c2)c2ccc(C#N)cc2)nc1C(=O)NS(C)(=O)=O` [Compound 50, 2-[N-(1,3-benzothiazol-6-ylmethyl)-4-cyano-anilino]-5-methyl-N-methylsulfonyl-thiazole-4-carboxamide], the EC50 in assay [1] is 79.4 nM; at human androgen receptor, 50.1 nM.
Turning to `Cc1sc(N(Cc2cc3ccccc3s2)c2ccc(C#N)cc2)nc1C(=O)NS(C)(=O)=O` [Compound 51, 2-[N-(benzothiophen-2-ylmethyl)-4-cyano-anilino]-5-methyl-N-methylsulfonyl-thiazole-4-carboxamide], the figures for the EC50 (in assay [1]; at human androgen receptor) were 50.1 nM and 31.6 nM, respectively.
In the case of `Cc1sc(N(CCc2ccccc2)c2ccc(C#N)cc2)nc1C(=O)NS(C)(=O)=O` [Compound 52, 2-[4-cyano-N-(2-phenylethyl)anilino]-5-methyl-N-methylsulfonyl-thiazole-4-carboxamide], the figures for the EC50 (in assay [1]; at human androgen receptor) were 398 nM and 2510 nM, respectively.
The corresponding values for `Cc1sc(N(Cc2ccccc2)c2ccc3ncccc3c2)nc1C(=O)NS(C)(=O)=O` [Compound 54, 2-[benzyl(6-quinolyl)amino]-5-methyl-N-methylsulfonyl-thiazole-4-carboxamide] are 398 nM and 1580 nM.
The corresponding values for `Cc1sc(N(Cc2ccccc2SC(F)(F)F)c2ccc(C#N)cc2)nc1C(=O)NS(C)(=O)=O` [Compound 56, 2-[4-cyano-N-[[2-(trifluoromethylsulfanyl)phenyl]methyl]anilino]-5-methyl-N-methylsulfonyl-thiazole-4-carboxamide] are 63.1 nM and 6310 nM.
Consider `Cc1sc(N(Cc2cccc(SC(F)(F)F)c2)c2ccc(C#N)cc2)nc1C(=O)NS(C)(=O)=O` [Compound 57, 2-[4-cyano-N-[[3-(trifluoromethylsulfanyl)phenyl]methyl]anilino]-5-methyl-N-methylsulfonyl-thiazole-4-carboxamide], for which the results for the EC50 (in assay [1]; on human androgen receptor) were 31.6 nM and 316 nM, respectively.
The corresponding values for `Cc1sc(N(Cc2cccc(OCc3ccccc3)c2)c2ccc(C#N)cc2)nc1C(=O)NS(C)(=O)=O` [Compound 59, 2-[N-[(3-benzyloxyphenyl)methyl]-4-cyano-anilino]-5-methyl-N-methylsulfonyl-thiazole-4-carboxamide] are 31.6 nM and more than 10000 nM.
The corresponding values for `Cc1sc(N(Cc2ccccc2)c2ccc(-n3cncn3)cc2)nc1C(=O)NS(C)(=O)=O` [Compound 61, 2-[N-benzyl-4-(1,2,4-triazol-1-yl)anilino]-5-methyl-N-methylsulfonyl-thiazole-4-carboxamide] are 501 nM and 3160 nM.
As to `CCCCN(c1ccc(C#N)cc1)c1nc(C(=O)NS(C)(=O)=O)c(C)s1` [Compound 64, 2-(N-butyl-4-cyano-anilino)-5-methyl-N-methylsulfonyl-thiazole-4-carboxamide], the EC50 in assay [1] was 251 nM; at human androgen receptor it was 2510 nM.
For `CCC(CC)CN(c1ccc(C#N)cc1)c1nc(C(=O)NS(C)(=O)=O)c(C)s1` [Compound 65, 2-[4-cyano-N-(2-ethylbutyl)anilino]-5-methyl-N-methylsulfonyl-thiazole-4-carboxamide], the EC50 in assay [1] was 126 nM; on human androgen receptor it was more than 10000 nM.
Taken in the same sequence, the figures for `Cc1sc(N(CCC(C)C)c2ccc(C#N)cc2)nc1C(=O)NS(C)(=O)=O` [Compound 66, 2-(4-cyano-N-isopentyl-anilino)-5-methyl-N-methylsulfonyl-thiazole-4-carboxamide] were 79.4 nM and 794 nM.
For the compound `Cc1sc(N(Cc2cccc3ccccc23)c2ccc(C#N)cc2)nc1C(=O)NS(C)(=O)=O` [Compound 68, 2-[4-cyano-N-(1-naphthylmethyl)anilino]-5-methyl-N-methylsulfonyl-thiazole-4-carboxamide], the EC50 in assay [1] was 50.1 nM; on human androgen receptor, 794 nM.
Taken in the same sequence, the figures for `Cc1sc(N(Cc2ccccc2)c2ccc(C#N)cc2)nc1C(=O)NS(=O)(=O)C(F)F` [Compound 69, 2-(N-benzyl-4-cyano-anilino)-N-(difluoromethylsulfonyl)-5-methyl-thiazole-4-carboxamide] were 25.1 nM and 1260 nM.
For `Cc1sc(N(Cc2ccc(Cl)cc2F)c2ccc(C#N)cc2)nc1C(=O)NS(C)(=O)=O` [Compound 70, 2-[N-[(4-chloro-2-fluoro-phenyl)methyl]-4-cyano-anilino]-5-methyl-N-methylsulfonyl-thiazole-4-carboxamide], the EC50 in assay [1] was 31.6 nM; on human androgen receptor, 63.1 nM.
Taken in the same sequence, the figures for `CCCCCCN(c1ccc(C#N)cc1)c1nc(C(=O)NS(C)(=O)=O)c(C)s1` [Compound 75, 2-(4-cyano-N-hexyl-anilino)-5-methyl-N-methylsulfonyl-thiazole-4-carboxamide] were 31.6 nM and 398 nM.
The corresponding values for `Cc1sc(N(CC23CC4CC(CC(C4)C2)C3)c2ccc(C#N)cc2)nc1C(=O)NS(C)(=O)=O` [Compound 76, 2-[N-(1-adamantylmethyl)-4-cyano-anilino]-5-methyl-N-methylsulfonyl-thiazole-4-carboxamide] are 50.1 nM and more than 10000 nM.
The corresponding values for `Cc1sc(N(Cc2cccs2)c2ccc(C#N)cc2)nc1C(=O)NS(C)(=O)=O` [Compound 77, 2-[4-cyano-N-(2-thienylmethyl)anilino]-5-methyl-N-methylsulfonyl-thiazole-4-carboxamide] are 50.1 nM and 631 nM.
Turning to `Cc1sc(N(CCC2CCCC2)c2ccc(C#N)cc2)nc1C(=O)NS(C)(=O)=O` [Compound 78, 2-[4-cyano-N-(2-cyclopentylethyl)anilino]-5-methyl-N-methylsulfonyl-thiazole-4-carboxamide], the EC50 is 25.1 nM in assay [1] and 158 nM at human androgen receptor.

Source of the values: patent publication US10689354B2, “Aminoazole derivative” (Teijin Pharma Limited, priority 2015, dated 2020).
